Values joined by “and” are separate entries in the source; they are usually repeats but may differ in a detail not shown here. Equal values may be shown once. “Also recorded” adds a separate entry of the source. Read-outs that look alike come from different tables or passages of the source.
Columns and labels:
Nav1.3 = Nav1.3 (Rattus norvegicus, UniProt P08104); conditions: read-out: TTX IC50; cited from earlier work
Nav1.4 = Nav1.4 (Rattus norvegicus, UniProt P15390); conditions: read-out: TTX IC50; cited from earlier work
Nav1.6 = Nav1.6 (Rattus norvegicus, UniProt O88420); conditions: read-out: TTX IC50; cited from earlier work
Nav1.7 = Nav1.7 (Rattus norvegicus, UniProt O08562); conditions: read-out: TTX IC50; cited from earlier work
Nav1.8 = Nav1.8 (Rattus norvegicus, UniProt Q62968); conditions: read-out: TTX IC50; cited from earlier work
hNav1.7 [1] = target: T1, hNav1.7 (Homo sapiens, UniProt Q15858); assay: cell-based; format: cell-based
hNav1.5 [2] = target: T2, hNav1.5 (Homo sapiens, UniProt Q14524); assay: cell-based; conditions: IonWorks Quattro; clamped to −110 mV, depolarized to −10 mV, 5 min after compound; n=2; read-out: IWQ Use Nav1.5
hNav1.3 [3] = target: T3, hNav1.3 (Homo sapiens, UniProt Q9NY46); assay: cell-based; conditions: IonWorks Quattro; clamped to −110 mV, depolarized to −10 mV, 5 min after compound; n=2; read-out: IWQ Use Nav1.3
hNav1.7 [4] = target: T1, hNav1.7; assay: cell-based; conditions: Nav1.7 Use IC50
hNav1.3 [5] = target: T3, hNav1.3; assay: cell-based; format: cell-based; conditions: Nav1.3 Use IC50
hNav1.5 [6] = target: T2, hNav1.5; assay: cell-based
hNav1.2 = hNav1.2 (Homo sapiens, UniProt Q99250); assay: cell-based; conditions: partially inactivated channels; read-out: IC50 against partially inactivated hNav1.2 channels
hNav1.7 [7] = target: T1, hNav1.7; format: cell-based
[8] = tested on: TTX-sensitive Nav channels in mouse DRG neurons; format: cell-based
[9] = tested on: voltage-gated potassium currents; format: cell-based; conditions: 500 nM; rat DRG neuron, step to 0 mV from −90 mV
fast sodium current = format: cell-based; conditions: 500 nM; rat DRG neuron, step to 0 mV from −90 mV
hNav1.5 [10] = target: T2, hNav1.5; assay: cell-based; conditions: PatchXpress counterscreen; held at −80 mV, prepulse −120 mV, test step −30 mV; read-out: IC50 against hNav1.5 (counterscreen)
[11] = human plasma, 37° C., incubation time 0 hr (normalisation point)
[12] = mouse plasma, 37° C., incubation time 0 hr (normalisation point)
[13] = tested on: formalin pain model in male CD-1 mice; conditions: for time spent lifting/licking, first phase / time spent lifting/licking, second phase: third study
[14] = tested on: locomotor activity in male CD-1 mice
[15] = tested on: isolated perfused rabbit heart
[16] = tested on: isolated perfused rabbit heart; remark: listed apart in the source
in vivo [17] = conditions: CD-1, mouse
in vivo [18] = conditions: male, CD-1, mouse, sc
in vivo [19] = conditions: male, CD-1, mouse, sc, terminal exposure (peptide plasma concentration at 2 h post peptide injection)
in vitro [20] = conditions: human, plasma
in vitro [21] = conditions: mouse, plasma
hERG = hERG (Homo sapiens, UniProt Q12809); assay: cell-based
[22] = first study, 5 mg/kg s.c., 1-hour pre-treatment
[23] = later studies (FIGS. 99-110), 5 mg/kg s.c., 1-hour pre-treatment

T2 sequence (Q14524 whole entry, looked up): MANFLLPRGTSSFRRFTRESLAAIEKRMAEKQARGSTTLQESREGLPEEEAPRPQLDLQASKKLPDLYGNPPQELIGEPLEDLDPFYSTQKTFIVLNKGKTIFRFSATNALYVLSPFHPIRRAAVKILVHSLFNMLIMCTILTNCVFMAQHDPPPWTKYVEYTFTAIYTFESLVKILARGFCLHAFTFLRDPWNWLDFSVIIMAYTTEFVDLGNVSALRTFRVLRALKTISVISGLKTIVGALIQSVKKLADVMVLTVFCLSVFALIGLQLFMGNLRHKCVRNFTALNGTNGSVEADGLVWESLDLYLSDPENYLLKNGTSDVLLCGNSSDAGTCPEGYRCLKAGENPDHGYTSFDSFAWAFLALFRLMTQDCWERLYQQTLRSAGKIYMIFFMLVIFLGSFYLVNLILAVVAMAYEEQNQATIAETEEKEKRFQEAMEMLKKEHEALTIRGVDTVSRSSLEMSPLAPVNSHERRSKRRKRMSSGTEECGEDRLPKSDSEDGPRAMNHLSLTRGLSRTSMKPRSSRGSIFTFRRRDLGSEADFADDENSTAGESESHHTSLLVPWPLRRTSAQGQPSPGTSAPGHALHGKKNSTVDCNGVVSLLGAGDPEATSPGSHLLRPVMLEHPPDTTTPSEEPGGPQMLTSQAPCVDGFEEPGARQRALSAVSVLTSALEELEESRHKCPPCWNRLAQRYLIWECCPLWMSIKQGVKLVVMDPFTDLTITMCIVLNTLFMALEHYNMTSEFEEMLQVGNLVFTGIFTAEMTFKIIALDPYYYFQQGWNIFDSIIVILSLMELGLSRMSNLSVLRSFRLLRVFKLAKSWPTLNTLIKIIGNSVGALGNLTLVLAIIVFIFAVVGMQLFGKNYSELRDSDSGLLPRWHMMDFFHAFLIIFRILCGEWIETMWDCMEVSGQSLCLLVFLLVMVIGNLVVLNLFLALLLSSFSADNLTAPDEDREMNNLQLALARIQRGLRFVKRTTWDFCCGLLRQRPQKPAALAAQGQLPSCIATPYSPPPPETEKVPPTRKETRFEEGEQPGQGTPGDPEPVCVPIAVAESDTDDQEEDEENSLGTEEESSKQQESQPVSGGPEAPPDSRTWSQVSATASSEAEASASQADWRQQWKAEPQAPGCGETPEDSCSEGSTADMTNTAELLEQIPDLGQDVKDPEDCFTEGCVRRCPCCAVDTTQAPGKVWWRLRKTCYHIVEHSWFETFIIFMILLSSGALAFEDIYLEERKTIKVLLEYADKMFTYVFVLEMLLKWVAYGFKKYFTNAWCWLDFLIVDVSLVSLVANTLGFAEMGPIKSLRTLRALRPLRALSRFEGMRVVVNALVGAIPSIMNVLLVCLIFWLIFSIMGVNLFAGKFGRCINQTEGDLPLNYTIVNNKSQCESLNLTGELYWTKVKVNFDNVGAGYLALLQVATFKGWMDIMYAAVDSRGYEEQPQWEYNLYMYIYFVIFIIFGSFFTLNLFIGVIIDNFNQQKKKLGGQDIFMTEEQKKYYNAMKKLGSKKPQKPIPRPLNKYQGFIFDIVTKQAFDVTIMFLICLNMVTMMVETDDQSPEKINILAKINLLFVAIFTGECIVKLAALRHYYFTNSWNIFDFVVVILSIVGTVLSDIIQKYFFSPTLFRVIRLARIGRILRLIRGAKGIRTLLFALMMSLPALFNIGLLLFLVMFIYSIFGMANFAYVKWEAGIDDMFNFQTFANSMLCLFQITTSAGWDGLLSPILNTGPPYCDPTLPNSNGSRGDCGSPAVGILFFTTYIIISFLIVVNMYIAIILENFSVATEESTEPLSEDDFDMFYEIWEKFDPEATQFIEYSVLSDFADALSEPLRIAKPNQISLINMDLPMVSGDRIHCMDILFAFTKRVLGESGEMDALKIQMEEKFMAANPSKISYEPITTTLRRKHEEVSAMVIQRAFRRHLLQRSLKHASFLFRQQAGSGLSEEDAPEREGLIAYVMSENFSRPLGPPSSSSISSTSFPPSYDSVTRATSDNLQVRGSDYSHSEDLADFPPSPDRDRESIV
T1 sequence (Q15858 whole entry, looked up): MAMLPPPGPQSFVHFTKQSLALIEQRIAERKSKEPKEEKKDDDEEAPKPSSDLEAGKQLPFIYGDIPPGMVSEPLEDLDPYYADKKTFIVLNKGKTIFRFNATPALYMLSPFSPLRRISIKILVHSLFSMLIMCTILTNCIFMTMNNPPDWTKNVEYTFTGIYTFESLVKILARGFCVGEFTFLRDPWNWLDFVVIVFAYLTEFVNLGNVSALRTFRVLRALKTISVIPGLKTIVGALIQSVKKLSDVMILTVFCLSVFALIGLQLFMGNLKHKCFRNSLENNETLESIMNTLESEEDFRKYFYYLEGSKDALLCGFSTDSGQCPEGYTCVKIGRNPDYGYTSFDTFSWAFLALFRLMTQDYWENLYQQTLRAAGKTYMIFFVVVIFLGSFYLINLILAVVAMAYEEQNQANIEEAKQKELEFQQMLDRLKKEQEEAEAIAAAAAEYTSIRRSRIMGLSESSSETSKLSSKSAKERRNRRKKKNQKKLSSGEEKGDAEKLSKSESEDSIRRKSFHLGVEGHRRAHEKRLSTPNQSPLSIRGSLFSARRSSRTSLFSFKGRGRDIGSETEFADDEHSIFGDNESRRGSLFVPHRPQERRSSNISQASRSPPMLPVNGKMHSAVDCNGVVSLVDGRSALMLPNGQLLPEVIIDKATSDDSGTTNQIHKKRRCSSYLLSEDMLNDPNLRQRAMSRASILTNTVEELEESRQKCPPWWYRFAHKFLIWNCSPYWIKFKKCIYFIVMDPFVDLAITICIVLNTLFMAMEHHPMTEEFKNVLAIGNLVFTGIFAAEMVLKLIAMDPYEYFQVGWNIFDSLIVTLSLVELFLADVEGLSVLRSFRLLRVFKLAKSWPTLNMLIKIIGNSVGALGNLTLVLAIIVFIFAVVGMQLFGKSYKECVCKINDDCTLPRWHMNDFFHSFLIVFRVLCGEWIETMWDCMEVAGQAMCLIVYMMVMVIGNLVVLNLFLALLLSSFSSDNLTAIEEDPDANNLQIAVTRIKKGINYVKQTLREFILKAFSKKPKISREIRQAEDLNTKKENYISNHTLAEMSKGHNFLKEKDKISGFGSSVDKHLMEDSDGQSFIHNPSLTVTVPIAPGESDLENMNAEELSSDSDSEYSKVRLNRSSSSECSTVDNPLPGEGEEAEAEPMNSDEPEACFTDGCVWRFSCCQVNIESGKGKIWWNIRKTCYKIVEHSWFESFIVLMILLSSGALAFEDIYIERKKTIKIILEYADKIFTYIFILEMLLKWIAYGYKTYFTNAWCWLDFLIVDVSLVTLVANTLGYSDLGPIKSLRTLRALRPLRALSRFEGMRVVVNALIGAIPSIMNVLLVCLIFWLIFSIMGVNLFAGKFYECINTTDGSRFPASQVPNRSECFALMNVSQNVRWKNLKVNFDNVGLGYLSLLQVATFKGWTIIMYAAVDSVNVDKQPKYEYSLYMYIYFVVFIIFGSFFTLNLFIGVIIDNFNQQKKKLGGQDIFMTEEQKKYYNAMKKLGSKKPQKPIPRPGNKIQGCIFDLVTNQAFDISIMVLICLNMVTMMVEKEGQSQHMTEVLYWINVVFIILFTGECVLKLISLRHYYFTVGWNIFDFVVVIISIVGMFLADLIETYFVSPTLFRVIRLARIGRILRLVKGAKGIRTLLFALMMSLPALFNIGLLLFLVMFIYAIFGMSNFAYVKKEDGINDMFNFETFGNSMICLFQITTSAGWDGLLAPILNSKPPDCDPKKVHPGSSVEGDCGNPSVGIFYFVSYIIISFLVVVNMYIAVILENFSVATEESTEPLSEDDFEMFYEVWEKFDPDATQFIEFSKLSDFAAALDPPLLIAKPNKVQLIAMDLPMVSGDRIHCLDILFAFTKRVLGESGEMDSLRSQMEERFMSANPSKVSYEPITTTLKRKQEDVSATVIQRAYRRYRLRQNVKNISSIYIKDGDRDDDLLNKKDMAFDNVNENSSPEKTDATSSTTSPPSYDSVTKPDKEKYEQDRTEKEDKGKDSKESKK
Chain of hERG (Q12809 whole entry): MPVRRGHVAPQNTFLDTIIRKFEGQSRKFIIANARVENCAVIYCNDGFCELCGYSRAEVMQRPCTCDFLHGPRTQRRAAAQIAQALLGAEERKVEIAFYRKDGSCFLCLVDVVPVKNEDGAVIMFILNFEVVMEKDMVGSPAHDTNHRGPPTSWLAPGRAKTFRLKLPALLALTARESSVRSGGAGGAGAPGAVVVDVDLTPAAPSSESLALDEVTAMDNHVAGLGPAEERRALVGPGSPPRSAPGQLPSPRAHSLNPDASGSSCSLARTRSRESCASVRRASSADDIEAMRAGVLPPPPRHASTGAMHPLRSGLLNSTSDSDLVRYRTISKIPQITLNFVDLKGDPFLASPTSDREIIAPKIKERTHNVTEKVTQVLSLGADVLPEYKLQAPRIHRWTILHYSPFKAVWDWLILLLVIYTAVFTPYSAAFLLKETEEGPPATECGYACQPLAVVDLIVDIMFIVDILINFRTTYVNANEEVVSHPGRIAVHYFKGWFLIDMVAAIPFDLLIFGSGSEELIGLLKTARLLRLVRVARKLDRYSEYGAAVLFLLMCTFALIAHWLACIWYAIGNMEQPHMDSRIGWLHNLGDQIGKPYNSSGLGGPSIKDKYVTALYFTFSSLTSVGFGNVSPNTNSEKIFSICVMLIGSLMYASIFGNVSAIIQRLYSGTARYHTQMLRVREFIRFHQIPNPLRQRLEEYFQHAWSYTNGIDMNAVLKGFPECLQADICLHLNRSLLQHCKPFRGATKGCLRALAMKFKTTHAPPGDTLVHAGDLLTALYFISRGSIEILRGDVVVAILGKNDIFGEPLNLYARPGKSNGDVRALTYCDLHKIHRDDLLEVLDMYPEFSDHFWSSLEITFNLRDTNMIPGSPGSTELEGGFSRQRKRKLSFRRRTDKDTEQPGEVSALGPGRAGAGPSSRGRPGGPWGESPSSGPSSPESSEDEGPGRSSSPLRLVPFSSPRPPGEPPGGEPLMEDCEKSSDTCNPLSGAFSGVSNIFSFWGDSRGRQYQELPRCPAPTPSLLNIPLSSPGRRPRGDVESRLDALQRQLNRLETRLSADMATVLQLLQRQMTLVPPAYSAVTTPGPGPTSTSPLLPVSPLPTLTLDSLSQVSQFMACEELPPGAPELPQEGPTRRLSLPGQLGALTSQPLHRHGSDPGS

For NC1=N[C@H](O)[C@H]2[C@H]3O[C@]4(O)O[C@@H]([C@@H](O)[C@@]2(N1)[C@@H]4O)[C@]3(O)CO [TTX, tetrodotoxin], the IC50 (Nav1.3) is given as 2 to 15 nM, the IC50 (Nav1.4) is given as 5 nM and the IC50 (Nav1.6) is given as 1 nM. The IC50 (Nav1.7) was 4 nM and the IC50 (Nav1.8) was > 50000 nM.

Compound CC[C@H](C)[C@@H]1NC(=O)[C@@H]2CSSC[C@@H]3NC(=O)[C@H](C(C)C)NC(=O)[C@H](CC(C)C)NC(=O)[C@H](CC(N)=O)NC(=O)[C@@H]4CCCN4C(=O)[C@H](CCCNC(=N)N)NC(=O)[C@H](CSSC[C@H](NC(=O)[C@@H](N)CC(=O)O)C(=O)N[C@@H](CC(C)C)C(=O)NCC(=O)N[C@@H](C)C(=O)N[C@@H](CCSC)C(=O)N[C@@H](CCCNC(=N)N)C(=O)N[C@@H](CCCCN)C(=O)N2)NC(=O)[C@H](CSSC[C@@H](C(=O)N[C@@H](CCCCN)C(=O)N[C@@H](Cc2ccc(O)cc2)C(=O)N[C@H](C(=O)N[C@@H](Cc2ccccc2)C(N)=O)C(C)C)NC(=O)[C@H](Cc2c[nH]c4ccccc24)NC(=O)[C@H](CCCCN)NC(=O)[C@H](Cc2cnc[nH]2)NC(=O)[C@H]([C@@H](C)O)NC(=O)[C@H](CCCNC(=N)N)NC(=O)[C@H](CO)NC3=O)NC(=O)[C@H](CCCCN)NC(=O)[C@H](CC(=O)O)NC(=O)[C@H](CC(N)=O)NC(=O)[C@H](CC(=O)O)NC(=O)[C@@H]2CCCN2C1=O [SEQ ID NO: 22] has an IC50 (hNav1.7 [1]) of 640 nM, an IC50 (hNav1.5 [2]) of 10300 nM and an IC50 (hNav1.3 [3]) of 1750 nM. For the same compound, the IC50 (hNav1.7 [4]) was 18 nM and 34 nM and 30 nM and 14 nM, the IC50 (hNav1.3 [5]) was 129 nM and 158 nM and the IC50 (hNav1.5 [6]) was > 10000 nM. The IC50 (hNav1.2) was 265 nM, the “inhibition of the Nav1.7 current” value (hNav1.7 [7]) was “complete inhibition” and the IC50 (hNav1.7 [7]; read-out: IC50 against partially inactivated hNav1.7 channels) was 13.2 nM. The “block of TTX-sensitive Nav current, time course of increasing concentrations” value [8] was “blocked nearly all TTX-sensitive Nav current”, the “block of TTX-sensitive versus TTX-resistant Nav current” value [8] was “selectively blocked TTX-sensitive Nay current but not TTX-resistant Nav current” and the IC50 ([8]; cells held at −140 mV, read-out: IC50 against TTX-sensitive sodium channels in mDRG neurons) was 17 nM. The “effect on voltage-gated potassium currents” value [9] was “did not block voltage-gated potassium currents”, the “effect on fast sodium current” value (fast sodium current) was “blocked fast sodium current; also recorded: steadily decreased” and the IC50 (hNav1.5 [10]) was > 30000 nM. The “% peptide remaining” value [11] was 100%, the “% peptide remaining” value [12] was 100% and the tolerability in mice (1 mg/kg i.v.) was “tolerated”. For the same compound, the exposure in blood (1 mg/kg s.c.) was “measurable exposure”, the “sustained peptide concentration in the plasma” value (5 mg/kg s.c.) was “about 0.6 μM” and the “time plasma concentration was sustained” value (5 mg/kg s.c.) was 3 h. For the same compound, the “plasma concentrations with significant reproducible reduction in paw lifting/licking” value ([13]; first two mouse formalin experiments) was 0.60 to 0.80 µM, the “time spent lifting and/or licking the affected paw, second phase (5-40 minutes post formalin injection)” value ([13]; mouse, in vivo) was “significantly reduced” and the “time spent lifting/licking, first phase” value ([13]; peptide 1 mg/kg s.c.) was “appeared to increase”. The “time spent lifting/licking, second phase” value ([13]; peptide 1 mg/kg s.c.) was “not significantly different”, the “time spent lifting/licking, first phase” value ([13]; peptide 3 mg/kg s.c.) was “appeared to increase” and the “time spent lifting/licking, second phase” value ([13]; peptide 3 mg/kg s.c.) was “appeared to significantly increase”. For the same compound, the total fine movement [14, 22] was “significantly reduced”, the total time rearing [14, 22] was “significantly reduced” and the total basic movement [14, 23] was “significantly reduced”. The total fine movement [14, 23] was “significantly reduced”, the total rearing [14, 23] was “significantly reduced” and the total time rearing [14, 23] was “significantly reduced”. For the same compound, the “peptide plasma concentrations resulting in significant effects on locomotor activity” value ([14]; mouse, in vivo) was > 1.5 µM, the “HR, normalized value, mean” value [15] was −0.18% and the “JT, normalized value, mean” value [15] was −4.57%. The “JTcF, normalized value, mean” value [15] was −4.60%, the “PR, normalized value, mean” value [15] was −3.52% and the “QRS, normalized value, mean” value [15] was −1.55%. For the same compound, the “QT, normalized value, mean” value [15] was −4.19%, the “QTcF, normalized value, mean” value [15] was −4.22% and the heart rate ([15]; 1 μM, 20 minutes) was “no effects”. The “ventricular depolarization and conduction (QRS and PR intervals)” value ([15]; 1 μM, 20 minutes) was “no effects”, the “ventricular repolarization (QTc or JTc intervals)” value ([15]; 1 μM, 20 minutes) was “no delaying effects” and the “Flow, mean, normalized value” [16] was 0.29%. For the same compound, the “LVDP, mean, normalized value” [16] was −3.16%, the “LVDevP, normalized value” [16] was −7.22% and the “LVSP, mean, normalized value” [16] was −8.81%. For the same compound, the “dP/dt+, mean, normalized value” [16] was −6.55%, the “dP/dt−, mean, normalized value” [16] was −2.93% and the “LV contractility (dP/dt+)” value ([16]; 1 μM, 20 minutes) was “no effects”. The “coronary blood flow (CF)” value ([16]; 1 μM, 20 minutes) was “no effects”, the coronary vasculature ([16]; 1 μM, 20 minutes) was “no direct effects” and the half-life (in vivo [17]; sc, 5 mg/kg) was 36 min. It also gave a level at time molar (in vivo [17]; sc, 5 mg/kg) of ~600 nM, a half-life (in vivo [17]; male, iv, 1 mg/kg) of ~15 min and a level at time molar at […] (in vivo [18]; 0.5 mg/kg, terminal exposure (peptide plasma concentration at 45 min post formalin injection), second study, 0.5 mg/kg s.c.) of 40 nM. For the same compound, the level at time molar at […] (in vivo [18]; 1 mg/kg, terminal exposure (peptide plasma concentration at 45 min post formalin injection), third study, 1 mg/kg s.c.) was 200 ± 50 nM, the level at time molar at […] (in vivo [18]; 3 mg/kg, terminal exposure (peptide plasma concentration at 45 min post formalin injection), third study, 3 mg/kg s.c.) was 530 ± 230 nM and the level at time molar at […] (in vivo [18]; 5 mg/kg, terminal exposure (peptide plasma concentration at 45 min post formalin injection), second study, 5.0 mg/kg s.c.) was 580 ± 260 nM. It also gave a level at time molar at […] (in vivo [18]; 5 mg/kg, terminal exposure (peptide plasma concentration at 45 min post formalin injection), third study, 5 mg/kg s.c.) of 1840 ± 180 nM, a level at time molar at […] (in vivo [18]; 5 mg/kg, terminal plasma exposure (peptide plasma concentration at 45 min post formalin injection), first study, 5 mg/kg s.c.) of 800 ± 210 nM and a level at time molar at 2 h (in vivo [19]; 3 mg/kg, first study, 3 mg/kg s.c.) of 890 ± 330 nM. The level at time molar at 2 h (in vivo [19]; 5 mg/kg, first study, 5 mg/kg s.c.) was 1790 ± 380 nM, the level at time molar at 2 h (in vivo [19]; 5 mg/kg, later studies, 5 mg/kg s.c.) was 2100 ± 470 nM and the remaining at 2 h (in vitro [20]) was 105%. It also gave a remaining at 4 h (in vitro [20]) of 99%, a remaining at 8 h (in vitro [20]) of 101% and a remaining at 24 h (in vitro [20]) of 105%. It also gave a remaining at 2 h (in vitro [21]) of 106%, a remaining at 4 h (in vitro [21]) of 107% and a remaining at 8 h (in vitro [21]) of 105%. For the same compound, the remaining at 24 h (in vitro [21]) was 99% and the IC50 (hERG) was > 10000 nM.

Reference: US9340590B2 (priority 2011, dated 2016)
